Source: patent publication US20170304336A1, “COMBINATION” (priority 2014, published 2017)
Several values for one entry are separate records, joined by “and”; a condition that tells them apart may be missing. Identical values can stand only once.

Experiments:
[1] = tested on: experimental rat hypercholesterolemia model; assay: Biochemical blood analysis (drug toxicity parameters) in rat hypercholesterolemia model; format: in vivo, male rats of Wistar line
Protocol: (§1) Evaluation of hypocholesterolemic efficacy and safety of pharmaceutical combination was performed in vivo in experimental rat hypercholesterolemia model.
(§2) For 90 days the studied animals received hypercholesterol diet for pathology induction. The diet included Cholesterol+Cholic acid+Overheated fats (deep fat).
(§3) Drugs were introduced intragastrically with an esophageal bougie daily on Day 31-90 of the study at the same time of day.
Biochemical parameters and activity of serum enzymes (aspartate- and alanine aminotransferase, creatine phosphokinase, urea, serum amylase, total bilirubin, direct bilirubin, indirect bilirubin, serum glucose, cations K^+, Na^+).
1.0-1.84 ml blood samples for the study of biochemical parameters were taken from tail vein of rats. Blood samples were taken from the animals after 14-15-hour's fasting at same time of day (9.00-11.00). For biochemical parameters tests a Biochemical Analyzer A-25 (Biosystems, Spain) was used.
Vol. 4. pp. 1794-1798; Pearlman F C and Lee R T Y. Clin Chem 1974, 20, 447-453; Zoppi F et al, Peracino A., Fenili D., Marcovina S. and Ramella C. Giorn It Chim Cl. […] C. et al Clin Chem. 1974. Vol. 20. pp. 470-475; and in Meiattini F., et al, Clin Chem. 1978. Vol. 24. pp. 2161-2165 (total cholesterol); Warnick G R et al. Clin Chem 2001, 47, 1579-96 (HDL/LDL); Bucolo G and David H. Clin Chem. 1973.-Vol. 19. pp. 476-482; and in Fossati P. and, Prencipe L., Clin Chem. 1982. Vol. 28. pp. 2077-2080 (triglycerides); Trinder P. Ann Clin Biochem. 1969. Vol. 6. pp. 24-27).

[2] = tested on: experimental rat hypercholesterolemia model; assay: Lipid spectrum of blood in experimental rat hypercholesterolemia model; format: in vivo, male rats of Wistar line; settings: dose 108 mg
Protocol: The animals used were male rats of Wistar line. […] The proposed model using rats as the experimental animals is a reproducible standard model for evaluation of hypocholesterolemic effect.
as §1, §2
For 90 days the animals received the said ration ad libitum (30 g feed per animal). Development of hypercholesterolemia in animals was evaluated based on changes in lipid spectrum parameters on Day 30 of the study.
as §3
Biochemical parameters and activity of blood serum enzymes (total cholesterol (CHS), LDL-CHS, HDL-CHS, triglycerides.
1.0-1.84 ml blood samples for the study of biochemical parameters were taken from tail vein of rats. Blood samples were taken from the animals after 14-15-hour's fasting at same time of day (9.00-11.00). For biochemical parameters tests a Biochemical Analyzer A-25 (Biosystems, Spain) was used. […]

[3] = Mass coefficients of liver and pancreas of rabbits; format: in vivo, male rabbits of Californian breed; settings: for Mass ratios, M ± SEM, Liver / Mass ratios, M ± SEM, Pancreas: dose 100 mg; for pancreatic mass coefficients relative to the control group: rosuvastatin 40 mg, AGA 100 mg
[4] = Dynamics of body weight of rabbits (Schemes A and B); format: in vivo, male rabbits of Californian breed; settings: for Body weight: Scheme A, M ± SEM
From the text: The animals used in this experiment were involved reproductive male rabbits of Californian breed. 144 rabbits were used. The weight of the animals at the beginning of the trial ranged from 2.5 to 3 kg; the animals were 8 weeks old. Before the study the laboratory animals were contained for 27 and for 37 days in the separate coops for adaptation. During this period, clinical condition of animals was controlled every day by visual inspection. The criteria of the inclusion of animals in the experiment were health and body weight.
The introduction of drugs under two schemes was used to determine the mechanism of action of the studied drugs and the impact on the different stages of atherosclerosis.
Cholesterol administered daily in an oil solution at 0.3 g/kg of animal body weight, one time, 4 hours after drug administration. Cholesterol was dissolved in hot sunflower oil and administered to the animals through noninvasive probe into the stomach. The duration of administration amounted cholesterol from 1 to 90 days in subgroup A and 1 to 120 days in subgroup B. 2. After 30 days from the initiation of administration of cholesterol vitamin D3 (cholecalciferol) in a dose of 0.256 ml/kg was added to the diet of animals to enhance aortic lipidosis. Cholecalciferol was administered intragastrically via a probe from 31 till 60 days (Scheme A and B). […] In order to gain atherosclerotic lesions in aorta and atherosclerosis induction time reduction the animals were administered a dose of epinephrineequal to 0.04 mg/kg intravenously since 31 till 60 every five days (Scheme A and B).
Animal body weight was measured in accordance with standard procedures prior to the study, then—weekly (for calculating the volume of administration of the test compound and the reference drug) and immediately before euthanasia (on days 60 and 120)—to calculate the weight gain.
The administration was carried out intragastrically in accordance with standard procedures using atraumatic probe according to two treatment regimens every day at the same time.

[5] = Mass coefficients of organs (pancreas, liver, kidneys) of rats; format: in vivo, male rats of Wistar line; settings: for weight coefficient, Kidneys / weight coefficient, Liver: in %
Protocol: To calculate mass coefficients the pancreas, liver and kidneys of the animals were extracted. The organs were weighed and the mass coefficients were calculated by the following formula:
Mass coefficient=(organ weight/animal body weight)×100%

[6] = Day 30 of treatment (Day 60 of study), dose 108 mg
[7] = blood, Day 60 of the treatment (Day 90 of the study), RV + AGA 10 + 108 mg, RV 10 mg, AGA 108 mg
[8] = blood, Day 60 of the treatment (Day 90 of the study), SV + AGA 20 + 108 mg, SV 20 mg, AGA 108 mg
[9] = Day 30 of treatment (Day 60 of study)
[10] = Day 60 of treatment (Day 90 of study)
[11] = (organ weight/animal body weight)×100%, Day 90 of study, dose 108 mg
[12] = M ± m, RV + AGA 10 + 108 mg, RV 10 mg, AGA 108 mg

In the case of `CC1(C)[C@@H](O[C@H]2O[C@H](C(=O)O)[C@@H](O)[C@H](O)[C@H]2O[C@@H]2O[C@H](C(=O)O)[C@@H](O)[C@H](O)[C@H]2O)CC[C@]2(C)[C@H]3C(=O)C=C4[C@@H]5C[C@@](C)(C(=O)O)CC[C@]5(C)CC[C@@]4(C)[C@]3(C)CC[C@@H]12.N` [AGA, Monoammonium glycyrrhizinate], the ALT [1, 6] is reported as 98 U/l, the AST [1, 6] is reported as 130 U/l and the Amylase [1, 6] is reported as 620 U/l. It also gave a Bilirubin direct [1, 6] of 2.1 mg/dL, a Bilirubin indirect [1, 6] of 1.8 mg/dL and a Bilirubin total [1, 6] of 4.1 mg/dL. The CPK [1, 6] was 310 U/l and 312 U/l, the Glucose [1, 6] was 112 mg/dL and the Potassium [1, 6] was 2.7 mM. It also gave a Sodium [1, 6] of 120 mmol, a Urea [1, 6] of 6.8 mmol/L and an ALT [1, 7] of 100 U/l. For the same molecule, the AST [1, 7] was 131 U/l, the Amylase [1, 7] was 600 U/l and the Bilirubin direct [1, 7] was 2.3 mg/dL. For the same molecule, the Bilirubin indirect [1, 7] was 1.9 mg/dL, the Bilirubin total [1, 7] was 2.9 mg/dL and the CPK [1, 7] was 310 U/l. The Glucose [1, 7] was 110 mg/dL, the Potassium [1, 7] was 3.2 mM and the Sodium [1, 7] was 122 mmol. The Urea [1, 7] was 5.5 mmol/L, the ALT [1, 8] was 100 U/l and the AST [1, 8] was 131 U/l. It also gave an Amylase [1, 8] of 600 U/l, a Bilirubin direct [1, 8] of 2.3 mg/dL and a Bilirubin indirect [1, 8] of 1.9 mg/dL. The Bilirubin total [1, 8] was 2.9 mg/dL, the CPK [1, 8] was 310 U/l and the Glucose [1, 8] was 110 mg/dL. For the same molecule, the Potassium [1, 8] was 3.2 mM, the Sodium [1, 8] was 122 mmol and the Urea [1, 8] was 5.5 mmol/L. The “HDL CHS” value [2, 9] was 0.53 ± 0.05 mmol/L, the “LDL CHS” value [2, 9] was 4.40 ± 0.4 mmol/L and the TG [2, 9] was 1.5 ± 0.11 mmol/L. The “Total CHS” value [2, 9] was 5.8 ± 0.5 mmol/L, the “HDL CHS” value [2, 10] was 0.63 ± 0.05 mmol/L and the “LDL CHS” value [2, 10] was 3.80 ± 0.3 mmol/L. For the same molecule, the TG [2, 10] was 1.30 ± 0.12 mmol/L, the “Total CHS” value [2, 10] was 4.5 ± 0.4 mmol/L and the “Mass ratios, M ± SEM, Liver” value ([3]; Scheme A) was 3.3 ± 0.1. The “Mass ratios, M ± SEM, Pancreas” value ([3]; Scheme A) was 0.05 ± 0.003, the “pancreatic mass coefficients relative to the control group” value ([3]; Scheme A) was “Statistically significant decrease” and the “Mass ratios, M ± SEM, Liver” value ([3]; Scheme B) was 3.0 ± 0.2. For the same molecule, the “Mass ratios, M ± SEM, Pancreas” value ([3]; Scheme B) was 0.06 ± 0.004^, the “pancreatic mass coefficients relative to the control group” value ([3]; Scheme B) was “statistically significant decrease” and the Body weight ([4]; Day 0 (Before the study), dose group 100 mg (Table 37)) was 2936 ± 150 g. For the same molecule, the Body weight ([4]; Day 28 (in the setting of pathology without treatment), dose group 100 mg (Table 37)) was 3369 ± 168 g, the Body weight ([4]; Day 90 (in the setting of pathology with treatment), dose 100 mg (Table 37)) was 3955 ± 119 g and the “body weight versus control animals” value ([4]; Scheme B, day 120, rosuvastatin+AGA 20+200 mg, atorvastatin+AGA 20+100 mg, AGA 100 mg) was “significantly lower”. The “Body weight, M ± SEM, Day 120 (in the setting of pathology with treatment)” value ([4]; Scheme B, dose 100 mg) was 4150 ± 144^2 g, the “Body weight, M ± SEM, Day 0 (Before the study)” value ([4]; Scheme B, dose 100 mg, baseline) was 2809 ± 145 g and the “Body weight, M ± SEM, Day 56 (in the setting of pathology without treatment)” value ([4]; Scheme B, dose 100 mg, before treatment) was 3569 ± 164 g. For the same molecule, the “weight coefficient, Pancreas” value [5, 11] was 0.21 ± 0.01^2, the “weight coefficient, Kidneys” value [5, 11] was 0.81 ± 0.02 and the “weight coefficient, Liver” value [5, 11] was 4.40 ± 0.09. For the same molecule, the “weight coefficient, Pancreas” value [5, 12] was 0.22 ± 0.01^2, the “weight coefficient, Kidneys” value [5, 12] was 0.81 ± 0.01 and the “weight coefficient, Liver” value [5, 12] was 4.41 ± 0.08.
